≈ marks a conversion by molar mass, not a printed value.
Tests used:
[1] = system: A. fumigatus; assay: A. fumigatus MIC at 100% growth inhibition (CLSI M38-A2); type: cell-based, Aspergillus fumigatus; settings: Aspergillus fumigatus, 100% growth inhibition; range tested 8-0.0078 μg/mL; values given as ranges; read-out: Aspergillus fumigatus MIC
Protocol: A. fumigatus MICs were determined at 100% growth inhibition following CLSI guidelines at a concentration range of 8-0.0078 μg/mL (CLSI M38-A2).

[2] = system: C. albicans (ATCC 90028); assay: Minimum inhibitory concentration, in vitro broth microdilution assay (CLSI M27-A2); type: cell-based, Candida albicans; settings: Candida albicans, ATCC90028, 48 h, ATCC 90028; about 50% growth reduction; 2 days at 36° C.; range tested 8-0.0078 μg/mL; values given as ranges; read-out: Candida albicans MIC
Method in brief: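 Inoculum of 1×10^3 to 1×10^4 CFU/mL in RPMI-1640+MOPS, exposed to 11 two-fold serial compound concentrations at 2 percent final DMSO, per CLSI M27-A2. After 2 days at 36° C, wells scored visually for growth to give MIC; tested in duplicate.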

[3] = system: Hedgehog signaling pathway Gli Reporter-NIH3T3 cells; assay: Gli luciferase reporter assay, Hedgehog signalling pathway activity; type: cell-based; settings: mShh 1 μg/ml, 27 hours
Protocol: Hedgehog signaling pathway Gli Reporter-NIH3T3 cells were cultured in DMEM medium with 10% Calf serum, 1% Penn-strep, 500 μg/ml of Geneticin.
To perform the Gli luciferase reporter assay, Gli Reporter—NIH3T3 cells were seeded at 25,000 cells per well into white clear-bottom 96-well microplate in 100 μl of growth medium. Cells were incubated at 37° C., and 5% CO2 for overnight. The next day, remove the medium from wells and add 45 μl of diluted inhibitor in assay medium (Opti-MEM Reduced Serum Medium+0.5% calf serum+1% non-essential amino acids+1 mM Na-pyruvate+10 mM HEPES+1% Pen/Strep) per well. Incubate cells at 37° C. in a CO2 incubator for 2 hours. Then add 5 μl of diluted mShh in assay medium to wells (final [mShh]=1 μg/ml). Add 50 μl of assay medium to cell-free control wells. Cells were treated for 27 hours. After treatment, cells were lysed and luciferase assay was performed using ONE-Step luciferase assay system: add 50 μl of One-Step Luciferase reagent per well and rock at room temperature for ˜30 minutes. Luminescence was measured using a luminometer (BioTek Synergy™ 2 microplate reader). Compounds of the present invention are active in blockade of hedgehog signalling.

Row | Compound | MIC [1] [µg/mL] | MIC [2] [µg/mL] | IC50 [3] [nM]
1 | N#Cc1ccc(N2CCN(c3ccc(-c4ccc(C(F)(F)C(O)(Cn5cnnn5)C5CC5)nc4)cc3)CC2)cc1 (stereo not drawn) [Example 36, 4-(4-(4-(6-(2-cyclopropyl-1,1-difluoro-2-hydroxy-3-(1H-tetrazol-1-yl)propyl)pyridin-3-yl)phenyl)piperazin-1-yl) benzonitrile] | > 8 | 0.0078 to 0.01 (≈ 0.0144 to 0.0184 µM) | 850
2 | CC[C@@H]([C@H](C)O)n1ncn(-c2ccc(N3CCN(c4ccc(-c5ccc(C(F)(F)C(O)(Cn6cccn6)c6ccc(F)cc6F)nc5)cc4)CC3)cc2)c1=O (stereo partly drawn) [Example 101, 4-(4-(4-(4-(6-(2-(2,4-difluorophenyl)-1,1-difluoro-2-hydroxy-3-(1H-pyrazol-1-yl)propyl)pyridin-3-yl)phenyl)piperazin-1-yl)phenyl)-2-((2S,3S)-2-hydroxypentan-3-yl)-2,4-dihydro-3H-1,2,4-triazol-3-one] | > 8 | 0.1 to 1 (≈ 0.132 to 1.32 µM) | 217
3 | CC[C@@H]([C@H](C)O)n1ncn(-c2ccc(N3CCN(c4ccc(-c5ccc(C(F)(F)C(O)(Cn6nccn6)c6ccc(F)cc6F)nc5)cc4)CC3)cc2)c1=O (stereo partly drawn) [Example 107, 4-(4-(4-(4-(6-(2-(2,4-difluorophenyl)-1,1-difluoro-2-hydroxy-3-(2H-1,2,3-triazol-2-yl)propyl)pyridin-3-yl)phenyl)piperazin-1-yl)phenyl)-2-((2S,3S)-2-hydroxypentan-3-yl)-2,4-dihydro-3H-1,2,4-triazol-3-one] | > 8 | > 8 | 270
4 | CC[C@@H]([C@H](C)O)n1ncn(-c2ccc(N3CCN(c4ccc(-c5ccc(C(F)(F)C(O)(Cc6nnn[nH]6)c6ccccc6F)nc5)cc4)CC3)cc2)c1=O (stereo partly drawn) [Example 115, 4-(4-(4-(4-(6-(1,1-difluoro-2-(2-fluorophenyl)-2-hydroxy-3-(1H-tetrazol-5-yl)propyl)pyridin-3-yl)phenyl)piperazin-1-yl)phenyl)-2-((2S,3S)-2-hydroxypentan-3-yl)-2,4-dihydro-3H-1,2,4-triazol-3-one] | > 8 | > 8 | 510
5 | CC[C@@H]([C@H](C)O)n1ncn(-c2ccc(N3CCN(c4ccc(-c5ccc(C(F)(F)C(O)(Cn6nccn6)c6ccccc6F)nc5)cc4)CC3)cc2)c1=O (stereo partly drawn) [Example 116, 4-(4-(4-(4-(6-(1,1-difluoro-2-(2-fluorophenyl)-2-hydroxy-3-(2H-1,2,3-triazol-2-yl)propyl)pyridin-3-yl)phenyl)piperazin-1-yl)phenyl)-2-((2S,3S)-2-hydroxypentan-3-yl)-2,4-dihydro-3H-1,2,4-triazol-3-one] | > 8 | > 8 | 160
6 | CC[C@@H]([C@H](C)O)n1ncn(-c2ccc(N3CCN(c4ccc(-c5ccc(C(F)(F)C(O)(Cn6cccn6)c6ccccc6F)nc5)cc4)CC3)cc2)c1=O (stereo partly drawn) [Example 117] | > 8 | > 8 | 92
7 | CC[C@@H]([C@H](C)O)n1ncn(-c2ccc(N3CCN(c4ccc(-c5ccc(C(F)(F)C(O)(Cn6nccn6)c6cccc(Cl)c6)nc5)cc4)CC3)cc2)c1=O (stereo partly drawn) [Example 125] | > 8 | > 8 | 92
8 | CC[C@@H]([C@H](C)O)n1ncn(-c2ccc(N3CCN(c4ccc(-c5ccc(C(F)(F)C(O)(Cn6cccn6)c6cccc(Cl)c6)nc5)cc4)CC3)cc2)c1=O (stereo partly drawn) [Example 126, 4-(4-(4-(4-(6-(2-(3-chlorophenyl)-1,1-difluoro-2-hydroxy-3-(1H-pyrazol-1-yl)propyl)pyridin-3-yl)phenyl)piperazin-1-yl)phenyl)-2-((2S,3S)-2-hydroxypentan-3-yl)-2,4-dihydro-3H-1,2,4-triazol-3-one] | > 8 | 1 to 8 (≈ 1.32 to 10.6 µM) | 190

Reference: US10464922B2, “Metalloenzyme inhibitor compounds” (NQP 1598 LTD., priority 2015, dated 2019)
